Test results reported in US9012655B2, “Antimicrobial/adjuvant compounds and methods” (Denouamed, Inc., priority 2011, dated 2015).

Legend:
Test in all cases: MIC panel of challenge pathogens (CLSI)
Format in all cases: cell-based
[1] = tested on: Enterococcus faecium ATCC700221; settings: Enterococcus faecium ATCC700221; for MIC: read-out: 100% inhibition; for MIC50: read-out: MIC50 (50%); for MIC80: read-out: MIC80 (80%)
Outline: (§1)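 Broth microdilution per CLSI guidelines. Final inoculum 2-8×10^5 CFU/ml, compounds serially two-fold diluted from 128 mg/L top concentration. Incubated in the dark at 30-37° C for 24-48 h, aerobic or anaerobic as appropriate. MIC read visually as 100% inhibition endpoint; MIC50 and MIC80 also reported.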

[2] = tested on: Staphylococcus aureus NRS384; settings: Staphylococcus aureus NRS384; for MIC: read-out: 100% inhibition; for MIC50: read-out: MIC50 (50%); for MIC80: read-out: MIC80 (80%)
Outline: as §1

[3] = tested on: Staphylococcus aureus NRS1 (ATCC700699); settings: Staphylococcus aureus NRS1 (ATCC700699); for MIC: read-out: 100% inhibition; for MIC50: read-out: MIC50 (50%); for MIC80: read-out: MIC80 (80%)
Outline: as §1

Bacillus cereus NCTC6349 = settings: Bacillus cereus NCTC6349; for MIC: read-out: 100% inhibition; for MIC50: read-out: MIC50 (50%); for MIC80: read-out: MIC80 (80%)
Outline: as §1

[4] = tested on: Enterococcus faecalis ATCC29212; settings: Enterococcus faecalis ATCC29212; for MIC: read-out: 100% inhibition; for MIC50: read-out: MIC50 (50%); for MIC80: read-out: MIC80 (80%)
Outline: as §1

[5] = tested on: Staphylococcus epidermidis NRS122; settings: Staphylococcus epidermidis NRS122; for MIC: read-out: 100% inhibition; for MIC50: read-out: MIC50 (50%); for MIC80: read-out: MIC80 (80%)
Outline: as §1

[6] = tested on: Staphylococcus epidermidis NRS7; settings: Staphylococcus epidermidis NRS7; for MIC: read-out: 100% inhibition; for MIC50: read-out: MIC50 (50%); for MIC80: read-out: MIC80 (80%)
Outline: as §1

[7] = tested on: Enterococcus faecalis ATCC51299; settings: Enterococcus faecalis ATCC51299; for MIC: read-out: 100% inhibition; for MIC50: read-out: MIC50 (50%); for MIC80: read-out: MIC80 (80%)
Outline: as §1

[8] = tested on: Staphylococcus aureus NRS2 (ATCC700698); settings: Staphylococcus aureus NRS2 (ATCC700698); for MIC: read-out: 100% inhibition; for MIC50: read-out: MIC50 (50%); for MIC80: read-out: MIC80 (80%)
Outline: as §1

[9] = tested on: Staphylococcus aureus AUR59 7005; settings: AUR597005, Staphylococcus aureus AUR59 7005; for MIC: read-out: 100% inhibition; for MIC50: read-out: MIC50 (50%); for MIC80: read-out: MIC80 (80%)
Outline: as §1

[10] = tested on: Staphylococcus aureus NRS382; settings: Staphylococcus aureus NRS382; for MIC: read-out: 100% inhibition; for MIC50: read-out: MIC50 (50%); for MIC80: read-out: MIC80 (80%)
Outline: as §1

[11] = tested on: Staphylococcus aureus NRS383; settings: Staphylococcus aureus NRS383; for MIC: read-out: 100% inhibition; for MIC50: read-out: MIC50 (50%); for MIC80: read-out: MIC80 (80%)
Outline: as §1

[12] = tested on: Staphylococcus aureus EUP MRSA002; settings: EUPMRSA002, Staphylococcus aureus EUP MRSA002; for MIC: read-out: 100% inhibition; for MIC50: read-out: MIC50 (50%); for MIC80: read-out: MIC80 (80%)
Outline: as §1

[13] = tested on: Staphylococcus aureus EUP SAU040; settings: EUPSAU040, Staphylococcus aureus EUP SAU040; for MIC: read-out: 100% inhibition; for MIC50: read-out: MIC50 (50%); for MIC80: read-out: MIC80 (80%)
Outline: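 CLSI broth microdilution; inoculum 2-8×10^5 CFU/ml; 2-fold series, top 128 mg/L; 30-37° C, 24-48 h, dark; visual read, 100% inhibition endpoint.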

[14] = tested on: Staphylococcus aureus ATCC43300; settings: Staphylococcus aureus ATCC43300; for MIC: read-out: 100% inhibition; for MIC50: read-out: MIC50 (50%); for MIC80: read-out: MIC80 (80%)
Outline: as §1

[15] = tested on: Staphylococcus aureus EUP MRSA004; settings: EUPMRSA004, Staphylococcus aureus EUP MRSA004; for MIC: read-out: 100% inhibition; for MIC50: read-out: MIC50 (50%); for MIC80: read-out: MIC80 (80%)
Outline: as §1

[16] = tested on: Staphylococcus aureus AUR131 007035; settings: AUR131007035, Staphylococcus aureus AUR131 007035; for MIC: read-out: 100% inhibition; for MIC50: read-out: MIC50 (50%); for MIC80: read-out: MIC80 (80%)
Outline: as §1

[17] = tested on: Staphylococcus aureus AUR60 7005; settings: AUR607005, Staphylococcus aureus AUR60 7005; for MIC: read-out: 100% inhibition; for MIC50: read-out: MIC50 (50%); for MIC80: read-out: MIC80 (80%)
Outline: as §1

[18] = tested on: Staphylococcus aureus AUR58 7005; settings: AUR587005, Staphylococcus aureus AUR58 7005; for MIC: read-out: 100% inhibition; for MIC50: read-out: MIC50 (50%); for MIC80: read-out: MIC80 (80%)
Outline: as §1

CC(C)c1cc(Cl)ccc1-c1cc(-c2nnn[nH]2)sc1-c1ccc(Cl)cc1C(C)C [DNM0548, 5-(4,5-Bis(4-chloro-2-iso-propylphenyl)thiophen-2-yl)-1H-tetrazole]
1 mg/L: MIC [5] | MIC50 [5] | MIC80 [5] | MIC [18] | MIC50 [18] | MIC80 [18]
0.25 mg/L: MIC [4] | MIC50 [4] | MIC80 [4]
≤ 0.25 mg/L: MIC [1] | MIC50 [1] | MIC80 [1] | MIC [2] | MIC50 [2] | MIC80 [2] | MIC [3] | MIC50 [3] | MIC80 [3] | MIC (Bacillus cereus NCTC6349) | MIC50 (Bacillus cereus NCTC6349) | MIC80 (Bacillus cereus NCTC6349) | MIC [7] | MIC50 [7] | MIC80 [7] | MIC [11] | MIC50 [11] | MIC80 [11] | MIC [14] | MIC50 [14] | MIC80 [14]
0.5 mg/L: MIC [6] | MIC50 [6] | MIC80 [6] | MIC [8] | MIC50 [8] | MIC80 [8] | MIC [9] | MIC50 [9] | MIC80 [9] | MIC [10] | MIC50 [10] | MIC80 [10] | MIC [12] | MIC50 [12] | MIC80 [12] | MIC [13] | MIC50 [13] | MIC80 [13] | MIC [15] | MIC50 [15] | MIC80 [15] | MIC [16] | MIC50 [16] | MIC80 [16] | MIC [17] | MIC50 [17] | MIC80 [17]

Cc1cc(Cl)ccc1-c1cc(-c2nnn[nH]2)sc1-c1ccc(C)c2ccccc12 [DNM0576, 5-(4-(4-Chloro-2-methylphenyl)-5-(4-methylnaphthalen-1-yl)thiophen-2-yl)-1H-tetrazole]
≤ 0.25 mg/L: MIC50 (Bacillus cereus NCTC6349) | MIC80 (Bacillus cereus NCTC6349) | MIC [12] | MIC50 [12] | MIC80 [12] | MIC [13] | MIC50 [13] | MIC80 [13] | MIC [15] | MIC50 [15] | MIC80 [15]
2 mg/L: MIC [5] | MIC50 [5] | MIC80 [5]
0.5 mg/L: MIC [1] | MIC [2] | MIC50 [2] | MIC80 [2] | MIC [3] | MIC80 [3] | MIC (Bacillus cereus NCTC6349) | MIC [6] | MIC80 [6] | MIC [8] | MIC50 [8] | MIC80 [8] | MIC [9] | MIC50 [9] | MIC80 [9] | MIC [10] | MIC50 [10] | MIC80 [10] | MIC [11] | MIC50 [11] | MIC80 [11] | MIC [14] | MIC50 [14] | MIC80 [14] | MIC [16] | MIC50 [16] | MIC80 [16] | MIC [17] | MIC50 [17] | MIC80 [17] | MIC [18] | MIC50 [18] | MIC80 [18]
1 mg/L: MIC [4] | MIC50 [4] | MIC80 [4] | MIC [7] | MIC50 [7] | MIC80 [7]
0.25 mg/L: MIC50 [1] | MIC80 [1] | MIC50 [3] | MIC50 [6]
